From patent US9034812B2, “Compositions and methods for treating biofilms” (Ohio University, priority 2011, dated 2015)

Tests used:
[1] = tested on: D. vulgaris (ATCC 7757) SRB biofilm; assay: Prevention of SRB biofilm establishment on carbon steel coupons (Example 1): sessile cell count and SEM; type: cell-based, Desulfovibrio vulgaris; settings: alone; for Sessile SRB cells on coupon surface (SEM), biofilm prevention: 7-day coupons
Procedure: D. vulgaris (ATCC 7757), a laboratory SRB strain, was cultured in ATCC 1249 medium. Quarter strength medium with only four key ingredients, i.e., MgSO4, sodium lactate, Fe(NH4)2(SO4)2 and yeast extract at concentrations ¼ of those in the full ATCC 1249 medium was also used to simulate a less nutritious environment. […] SRB culture media were sterilized in an autoclave and then deoxygenated using N2 (filter sterilized) sparging. SRB cells were enumerated using an SRB test kit (Sani-Check® Product #100, Biosan Laboratories, Warren, Mich., USA). […] Below this cell count, it is hard to catch an individual cell under the light microscope. The Most Probable Number (MPN) enumeration method is a standard method to estimate very low cell counts. MPN succeeds by growing the cells first and correlating the cell counts with the appearance of black color (due to FeS produced by SRB). […] The SRB test kit used in this example is equivalent to an MPN method using a solid medium instead of a liquid medium.
Anaerobic vials used in this example were 125 ml (Catalog No. 223748, Wheaton Industries Inc., 143 Millville, N.J., USA), each filled with 100 ml of culture medium. A glovebox filled with filter-sterilized N2 provided an anaerobic environment. To mitigate any possible oxygen leaks, 100 ppm L-cysteine (Fisher Scientific, Pittsburgh, Pa., USA), an oxygen scavenger, was added to the culture media. Thin disk shaped C1018 carbon steel coupons with a top disk surface area of 1.12 cm^2 were polished with 200, 400, and 600 grit abrasive papers progressively. Only the top surface of each coupon was exposed to the culture medium. The rest of the surfaces were coated with inert Teflon. After polishing, the coupons were weighed. The coupons were cleaned using isopropanol and then dried under UV light for 15 minutes.
Three duplicate coupons and 1 ml of a 3-day old SRB seed culture were added to each anaerobic vial. The initial SRB cell concentration in each vial immediately after inoculation was approximately 10^6 cells/ml. After adding treatment chemical(s) following inoculation, the vials were sealed and then incubated at 37° C. After 7 days of incubation, the biofilm on a coupon surface was observed under SEM. The procedure to prepare a coupon for SEM observation of a biofilm was described by Wen et al., Inter. […] Au coating of the biofilm covered coupon was necessary for SEM because the biofilm was not conductive. An SEM image was taken for the spot with most sessile cells after screening three duplicate coupons. A special control coupon was inserted in a vial containing the culture medium without biocide treatment and incubated without inoculation. This abiotic control would indicate yellow rust if an oxygen leak occurred. Its surface was also scanned for sessile cells under SEM for possible microbial contamination. Care was also taken to identify sessile cells that looked different from D. vulgaris during biofilm observation under SEM, which would indicate microbial contamination.
To obtain the average sessile cell density on a coupon surface, the sessile cells were first scraped off from the surface of a duplicate coupon onto a brush-like dipstick of the SRB test kit handled with sterile tweezers. The dipstick was wetted with deoxygenated water before scraping. Most of the sessile cells were collected by the dipstick. […]

[2] = tested on: D. vulgaris (ATCC 7757) SRB biofilm; assay: Mitigation of MIC pitting and weight loss of C1018 carbon steel coupons (Example 1); parameters: species or system Desulfovibrio vulgaris; settings: 50 ppm, alone; 7 days
Description: The coupons for SEM used in above in “Prevention of Biofilm Establishment” were reused to observe the MIC pitting after their biofilms and Au coating were removed using the Clark's solution. Coupon weight loss data were obtained from another duplicate coupon in each vial. The coupon surface was cleaned to remove biofilms and mineral deposits using the Clark's solution before weighing.

[3] = tested on: D. vulgaris (ATCC 7757) SRB biofilm; assay: Prevention of SRB biofilm establishment (Example 2): sessile cell count (MPN) and SEM; type: cell-based, Desulfovibrio vulgaris; settings: 100 ppm, alone, 7 days; for Sessile SRB cells on coupon (SEM), biofilm prevention: full-strength medium
Procedure: D. vulgaris (ATCC 7757), a common SRB strain, was used in this example. Before inoculation, the culture media were autoclave sterilized and then sparged with filter-sterilized nitrogen for at least 45 minutes to remove dissolved oxygen. SRB growth was carried out in 125 ml anaerobic vials (Catalog No. 223748, Wheaton Industries Inc., Millville, N.J., USA) filled with 100 ml culture medium. In the test, 1 ml SRB seed culture was used to inoculate each anaerobic vial to achieve an SRB concentration of 10^6 cells/ml right after inoculation. The full-strength ATCC 1249 medium with 200 ppm Fe^2+ was used to grow SRB biofilm on coupon surfaces.
It was neutralized to pH 7.0 by adding a sodium hydroxide solution. Coin shaped C1018 carbon steel coupons with a top exposed surface area of 1.12 cm^2 were used as substratum for SRB growth. The side and bottom surfaces were coated with inert Teflon. The top surface was polished sequentially by 200, 400, and 600 grit abrasive papers. Nitrogen sparging was used to remove dissolved oxygen in all liquids and to provide an anaerobic environment in a glove box. 100 ppm L-cysteine (Fisher Scientific, Pittsburgh, Pa., USA) was added to the culture media as an oxygen scavenger to mitigate any possible oxygen leak.
One milliliter of SRB seed culture was added at the beginning of the tests and the vials were sealed and incubated at 37° C. without shaking. After 7 days, the coupons were taken out and examined for sessile SRB cells.
(§1) The procedure to prepare a coupon for SEM observation of a biofilm on a coupon surface was described by Wen et al., Inter. Biodeter. Biodegr., (2009), 63:1102-1106. […] Thus, an SEM image was taken after searching for a spot with the most sessile cells. The cells seen in the SEM images should not be used to count the sessile cells because of uneven distribution. Instead, the Most Probable Number (MPN) method was used to enumerate sessile cells. SEM images could be used as qualitative visual confirmation of biofilm removal.
(§2) Viable D. vulgaris cells can be seen as motile cells under a light microscope at 400×. Thus they can be counted using a hemocytometer. However, this method has a detection limit of 5×10^4 cells/ml minimum at 400× magnification. It is a standard practice to enumerate very low cell counts using the semi-quantitative most probable number (MPN) method with a liquid culture medium or a solid medium. The accuracy of MPN is typically 1 log in cell numbers. Thus, it takes at least a 2-log reduction to assure the efficacy of a biocide system. In this example, the sessile cells on a coupon were scraped and collected in a test tube by using the brush-like dipstick that was part of an SRB test kit (Sani-Check® Product #100 from Biosan Laboratories, Warren, Mich., USA). The dipstick was then soaked in 10 ml sterilized distilled water and vortexed for 30 s. Finally, the dipstick was inserted into the test kit's vial containing a solid SRB culture medium. The SRB sessile cell concentration was based on how long it took for the black color (FeS) to appear in the medium around the dipstick. The tests were repeated three separate times. Each time, two coupons were used for sessile SRB cell counting.

[4] = tested on: mature D. vulgaris (ATCC 7757) SRB biofilm; assay: Removal of established SRB biofilm, 1-h and 3-h simulated slug treatment (Example 2); type: cell-based, Desulfovibrio vulgaris; settings: alone
Procedure: The full-strength ATCC 1249 medium was used to grow SRB biofilms on coupon surfaces first. […] In the anaerobic chamber, the coupons were taken out and rinsed with phosphate buffered saline (PBS) buffer to remove loose planktonic cells. The coupons were then placed into petri dishes containing treatment chemicals in a water solution. Some coupons were treated for 1 h and some for 3 h. This simulated slug treatment with a contact time lasting 1 and 3 h, respectively, as in the situation when a biocide slug flows inside a pipeline. Flow effect was not considered here. Exposing SRB cells on a coupon from the ATCC 1249 medium to a water solution lacking salt ions might cause osmotic shock that could interfere with the biocide efficacy evaluation. Instead of using PBS buffer commonly used in cell cultures, two salts in the original medium, MgSO4 and (NH4)2Fe(SO4)2, were added to the 1 and 3-h treatment solutions at ¼ of their corresponding concentrations in the full-strength ATCC 1249 medium. The treated coupons were then removed and examined for sessile SRB cells. The diluted medium was used here to simulate the residual nutrients retained by the local biofilms when the bulk pipeline or tank fluid is displaced by the biocide solution during a field treatment.
as §1, §2

CC(C)C[C@@H](N)C(=O)O [D-leucine]
Sessile cell count ([1]; 500 ppm, after 7 days, ATCC 1249 medium): ≧10^5 cells/cm^2

CSCC[C@@H](N)C(=O)O [D-methionine]
Sessile SRB cells on coupon surface (SEM), biofilm prevention ([1]; 500 ppm): had sessile SRB cells on their surfaces

Tetrakis hydroxymethyl phosphonium sulfate [THPS]
Sessile SRB cells on coupon surface (SEM), biofilm prevention ([1]; 100 ppm): had sessile SRB cells on their surfaces | Normalized coupon weight loss (average) [2]: 0.65 mg/cm^2 | Kill of SRB sessile cells [3]: 99.999% | Reduction of SRB sessile cells versus untreated control [3]: 5 log | Sessile SRB cells on coupon (SEM), biofilm prevention [3]: partially effective | Reduction of sessile SRB concentration versus control ([4]; 50 ppm, 1 h): 2 log | Sessile SRB cells on coupon (SEM), 1-h shock treatment ([4]; 50 ppm, 1 h): numerous sessile SRB cells remained | Sessile cell count for 1-h treatment ([4]; 50 ppm, 1 h): ≧10^4 cells/cm^2 | Sessile cell count for 3-h treatment ([4]; 50 ppm): ≧10^3 cells/cm^2

N[C@H](Cc1c[nH]c2ccccc12)C(=O)O [D-tryptophan]
Sessile SRB cells on coupon surface (SEM), biofilm prevention ([1]; 100 ppm): ineffective

N[C@H](Cc1ccc(O)cc1)C(=O)O [D-tyrosine]
Sessile SRB cells on coupon surface (SEM), biofilm prevention ([1]; 10 ppm): not effective in preventing SRB biofilm formation | Reduction of SRB sessile cells versus untreated control [3]: 1 log | Sessile SRB cells on coupon (SEM), biofilm prevention [3]: completely ineffective | Sessile SRB cells on coupon (SEM), 1-h shock treatment ([4]; 100 ppm, 1 h): left many sessile cells on the coupon surface | Sessile cell count for 3-h treatment ([4]; 100 ppm): ≧10^5 cells/cm^2
